Results on 11 molecules are retold here after PubChem BioAssay AID226 (DTP/NCI, 2004).

The test has as its system B6C3F1 mice, intracerebral ependymoblastoma, median survival T/C. Briefly: NCI In Vivo Anticancer Drug Screen. Data for tumor model Ependymoblastoma (intracerebral) in B6C3F1 mice. The settings on record: endpoint: median survival time, higher = longer survival. As for the experimental part:
The antitumor activity of compounds was measured in mice bearing transplantable tumors. Survival or tumor size were measured and the results are expressed as the measurement made in the treated group (T) divided by the measurement made in the vehicle treated control group (C). The tumor model used in this assay is Ependymoblastoma (intracerebral) in B6C3F1 mice

Where [1] appears, read: dose: 4.0 mg/kg/injection, schedule: Q01DX005 (ip), vehicle: saline.
Setting [2] is: dose: 16.0 mg/kg/injection, schedule: Q01DX005 (ip), vehicle: saline with Tween-80.
The mark [3] stands for this setting: dose: 16.0 mg/kg/injection, schedule: Q01DX005 (ip), vehicle: saline.
[4] abbreviates: dose: 32.0 mg/kg/injection, schedule: Q01DX005 (ip), vehicle: saline with Tween-80.
[5] abbreviates: dose: 64.0 mg/kg/injection, schedule: Q01DX005 (ip), vehicle: saline with Tween-80.
Where [6] appears, read: dose: 64.0 mg/kg/injection, schedule: Q01DX005 (ip), vehicle: saline.
Setting [7] is: dose: 128.0 mg/kg/injection, schedule: Q01DX005 (ip), vehicle: saline with Tween-80.
[8] abbreviates: dose: 32.0 mg/kg/injection, schedule: Q01DX005 (ip), vehicle: Klucel (hydroxypropylcellulose) (HPC).
The mark [9] stands for this setting: dose: 64.0 mg/kg/injection, schedule: Q01DX005 (ip), vehicle: Klucel (hydroxypropylcellulose) (HPC).
The mark [10] stands for this setting: dose: 128.0 mg/kg/injection, schedule: Q01DX005 (ip), vehicle: Klucel (hydroxypropylcellulose) (HPC).

The structures appear in SMILES notation. Values joined by “and” are separate entries in the source; they are usually repeats but may differ in a detail not shown here. Equal entries are not always repeated. Inconclusive results and toxic doses are left out.

Turning to `N=[N+]=CC(=O)CCC(NC(=O)C(CCC(=O)C=[N+]=N)NC(=O)CCC(N)C(=O)O)C(=O)O` (configuration not stated), the T/C by setting is: (dose: 0.05 mg/kg/injection, schedule: Q01DX005 (ip), vehicle: Klucel (hydroxypropylcellulose) (HPC)) 100 % of control and 106 % of control; (dose: 0.1 mg/kg/injection, schedule: Q01DX005 (ip), vehicle: Klucel (hydroxypropylcellulose) (HPC)) 90 % of control and 107 % of control; (dose: 0.2 mg/kg/injection, schedule: Q01DX005 (ip), vehicle: Klucel (hydroxypropylcellulose) (HPC)) 99 % of control and 108 % of control; (dose: 0.4 mg/kg/injection, schedule: Q01DX005 (ip), vehicle: Klucel (hydroxypropylcellulose) (HPC)) 97 % of control and 114 % of control.
For the molecule `COC1C(O)C(C)OC(OC2C(Oc3cccc4c(O)c5c(=O)oc6ccc(C)c7c(=O)oc(c34)c5c67)OC(C)C(O)C2O)C1O` (configuration not stated), the T/C by setting is: (dose: 1.0 mg/kg/injection, schedule: Q01DX005 (ip), vehicle: saline) 105 % of control; (dose: 2.0 mg/kg/injection, schedule: Q01DX005 (ip), vehicle: saline with Tween-80) 94 % of control and 105 % of control; (dose: 2.0 mg/kg/injection, schedule: Q01DX005 (ip), vehicle: saline) 98 % of control; (dose: 4.0 mg/kg/injection, schedule: Q01DX005 (ip), vehicle: saline with Tween-80) 99 % of control and 102 % of control; under setting [1], 96 % of control; (dose: 8.0 mg/kg/injection, schedule: Q01DX005 (ip), vehicle: saline with Tween-80) 102 % of control and 104 % of control. Moreover, the T/C was 101 % of control (dose: 8.0 mg/kg/injection, schedule: Q01DX005 (ip), vehicle: saline); 100 % of control and 105 % of control under setting [2]; 93 % of control under setting [3]; 106 % of control and 89 % of control under setting [4]; 98 % of control (dose: 32.0 mg/kg/injection, schedule: Q01DX005 (ip), vehicle: saline); 102 % of control and 108 % of control under setting [5]. Moreover, the T/C runs as follows: under setting [6], 103 % of control; under setting [7], 106 % of control and 111 % of control; (dose: 128.0 mg/kg/injection, schedule: Q01DX005 (ip), vehicle: saline) 98 % of control.
Consider `CCOC(=O)CNC(=O)CCCCSc1ncnc2nc[nH]c12`, for which the T/C by setting is: under setting [1], 106 % of control; (dose: 16.0 mg/kg/injection, schedule: Q01DX001 (oral), vehicle: Klucel (hydroxypropylcellulose) (HPC)) 95 % of control; (dose: 16.0 mg/kg/injection, schedule: Q01DX005 (ip), vehicle: Klucel (hydroxypropylcellulose) (HPC)) 100 % of control and 105 % of control; under setting [3], 95 % of control and 101 % of control; under setting [8], 96 % of control; (dose: 64.0 mg/kg/injection, schedule: Q01DX001 (oral), vehicle: Klucel (hydroxypropylcellulose) (HPC)) 92 % of control. In addition, the T/C reads like this: under setting [9], 95 % of control and 104 % of control and 109 % of control; under setting [6], 96 % of control and 109 % of control; under setting [10], 98 % of control; (dose: 256.0 mg/kg/injection, schedule: Q01DX001 (oral), vehicle: Klucel (hydroxypropylcellulose) (HPC)) 105 % of control; (dose: 256.0 mg/kg/injection, schedule: Q01DX005 (ip), vehicle: Klucel (hydroxypropylcellulose) (HPC)) 102 % of control and 108 % of control; (dose: 256.0 mg/kg/injection, schedule: Q01DX005 (ip), vehicle: saline) 105 % of control and 112 % of control. Further, the T/C (dose: 512.0 mg/kg/injection, schedule: Q01DX005 (ip), vehicle: Klucel (hydroxypropylcellulose) (HPC)) was 96 % of control; the T/C (dose: 1024.0 mg/kg/injection, schedule: Q01DX005 (ip), vehicle: Klucel (hydroxypropylcellulose) (HPC)) is 100 % of control and 119 % of control and 121 % of control; the T/C (dose: 1024.0 mg/kg/injection, schedule: Q01DX005 (ip), vehicle: saline) was 111 % of control and 124 % of control.
Take `O=C(NC1=C(N2CC2)C(=O)C(NC(=O)OCCO)=C(N2CC2)C1=O)OCCO`: the T/C (dose: 0.18 mg/kg/injection, schedule: Q01DX005 (ip), vehicle: saline) is 106 % of control; the T/C (dose: 0.39 mg/kg/injection, schedule: Q01DX005 (ip), vehicle: saline) is 98 % of control; the T/C (dose: 0.75 mg/kg/injection, schedule: Q01DX005 (ip), vehicle: saline) is 102 % of control; the T/C (dose: 1.5 mg/kg/injection, schedule: Q01DX005 (ip), vehicle: saline) was 103 % of control and 108 % of control; the T/C (dose: 3.0 mg/kg/injection, schedule: Q01DX005 (ip), vehicle: saline) is 96 % of control and 115 % of control; the T/C (dose: 6.0 mg/kg/injection, schedule: Q01DX005 (ip), vehicle: saline) is 110 % of control and 113 % of control.
For the molecule `Nc1ccn(C2OC(COC(=O)C34CC5CC(CC(C5)C3)C4)C(O)C2O)c(=O)n1` (configuration not stated), the T/C by setting is: (dose: 6.25 mg/kg/injection, schedule: Q01DX005 (ip), vehicle: Klucel (hydroxypropylcellulose) (HPC)) 98 % of control and 105 % of control; (dose: 12.5 mg/kg/injection, schedule: Q01DX005 (ip), vehicle: Klucel (hydroxypropylcellulose) (HPC)) 100 % of control and 105 % of control; (dose: 25.0 mg/kg/injection, schedule: Q01DX005 (ip), vehicle: Klucel (hydroxypropylcellulose) (HPC)) 104 % of control and 116 % of control; (dose: 50.0 mg/kg/injection, schedule: Q01DX005 (ip), vehicle: Klucel (hydroxypropylcellulose) (HPC)) 109 % of control.
`CC(C)=CCC1=C(O)c2ccccc2C(=O)C1=O`: the T/C is, setting by setting: under setting [8], 91 % of control; under setting [9], 100 % of control; under setting [10], 96 % of control.
For the molecule `O=P1(NCCCl)OCCCN1CCCl` (configuration not stated), the T/C by setting is: (dose: 25.0 mg/kg/injection, schedule: Q01DX001 (ip), vehicle: water) 101 % of control; (dose: 40.0 mg/kg/injection, schedule: Q01DX001 (ip), vehicle: saline) 102 % of control; (dose: 50.0 mg/kg/injection, schedule: Q01DX001 (ip), vehicle: water) 104 % of control and 105 % of control; (dose: 80.0 mg/kg/injection, schedule: Q01DX001 (ip), vehicle: saline) 101 % of control; (dose: 100.0 mg/kg/injection, schedule: Q01DX001 (ip), vehicle: water) 101 % of control and 113 % of control; (dose: 160.0 mg/kg/injection, schedule: Q01DX001 (ip), vehicle: saline) 102 % of control. In addition, the T/C is 114 % of control and 124 % of control (dose: 200.0 mg/kg/injection, schedule: Q01DX001 (ip), vehicle: water); 105 % of control (dose: 320.0 mg/kg/injection, schedule: Q01DX001 (ip), vehicle: saline); 119 % of control (dose: 400.0 mg/kg/injection, schedule: Q01DX001 (ip), vehicle: water); 118 % of control (dose: 640.0 mg/kg/injection, schedule: Q01DX001 (ip), vehicle: saline).
For the molecule `c1ccc([C@H]2CN3CCSC3=N2)cc1`, the T/C (dose: 10.0 mg/kg/injection, schedule: Q01DX005 (ip), vehicle: saline) was 114 % of control; the T/C (dose: 20.0 mg/kg/injection, schedule: Q01DX005 (ip), vehicle: saline) was 107 % of control; the T/C (dose: 40.0 mg/kg/injection, schedule: Q01DX005 (ip), vehicle: saline) is 110 % of control.
`[N-]=[N+]=CC(=O)CCC(N)C(=O)O` (configuration not stated): the T/C runs as follows: (dose: 0.05 mg/kg/injection, schedule: Q01DX005 (ip), vehicle: saline) 111 % of control; (dose: 0.06 mg/kg/injection, schedule: Q01DX005 (ip), vehicle: saline) 93 % of control and 117 % of control; (dose: 0.1 mg/kg/injection, schedule: Q01DX005 (ip), vehicle: saline) 97 % of control; (dose: 0.12 mg/kg/injection, schedule: Q01DX005 (ip), vehicle: saline) 111 % of control and 114 % of control; (dose: 0.2 mg/kg/injection, schedule: Q01DX005 (ip), vehicle: saline) 122 % of control.
As for `CN(C)N=Nc1ccc([N+](=O)[O-])cc1C(N)=O`, the T/C under setting [4] is 112 % of control; the T/C (dose: 256.0 mg/kg/injection, schedule: Q01DX005 (ip), vehicle: saline with Tween-80) was 167 % of control; the T/C (dose: 512.0 mg/kg/injection, schedule: Q01DX005 (ip), vehicle: saline with Tween-80) is 150 % of control.
As to `CC/C(=C(/CC)c1ccc(O)cc1)c1ccc(O)cc1`, the T/C under setting [2] was 102 % of control, the T/C under setting [4] is 102 % of control, the T/C under setting [5] was 109 % of control and the T/C under setting [7] is 104 % of control.
